What was measured:
[1] = Plasma protein binding (free fraction), human plasma
Experimental: (§1) Pharmacokinetic analyses were performed at F. Hoffmann-La Roche as described in supporting Materials and Methods S1.

[2] = Plasma protein binding (free fraction), rat plasma
Experimental: as §1
(§2) Cmax, maximum concentration; Tmax, time at which maximum concentration was observed; AUC, area under the plasma concentration vs. time curve; CL, clearance; Vss, volume of distribution at steady state; T1/2, terminal half-life; F, bioavailability; Fu, Fraction unbound. Plasma values are mean, n=2.

[3] = tested on: TNF-alpha (h); test: CEREP radioligand binding; parameters: species or system human; details: % of control specific binding
Experimental: SB-334867 was evaluated in a selectivity screen performed at CEREP (Paris, France). The screen consisted of binding assays on a panel of 79 target receptors. The specific binding (SB) of a radioligand to each target receptor was defined as the difference between the total binding and the nonspecific binding determined in the presence of a cold competitor in excess. […] Details on the CEREP screen are available from www.cerep.fr.

[4] = Stability in rat plasma
Experimental: as §1

[5] = Stability in human plasma
Experimental: as §1

[6] = Pharmacokinetics after single i.v. or p.o. bolus in Wistar rat
Experimental: as §1, §2

[7] = tested on: Male Wistar rats; test: Spontaneous locomotor activity during the active phase; format: in vivo, rat; details: for spontaneous LMA: vehicle 6097±536; for effect on spontaneous LMA (in words): 3, 10, 30 mg/kg ip at ZT15, almorexant significant only at 30 mg/kg, SB-334867 at 10 and 30 mg/kg
Experimental: Locomotor activity (LMA) was evaluated at F. Hoffmann-La Roche as described previously. Male Wistar rats were placed for 2 weeks in a 12 h light/12 h dark cycle with light onset at 22∶00 (ZT0). […] Spontaneous LMA was recorded for a period of 30 min. At the end of the experiment, the brain and plasma were collected for determination of the drug exposure and brain/plasma concentration ratio.
Horizontal locomotor activity was recorded for a period of 30 min. Numbers on the X-axes represent intraperitoneal doses in mg/kg.***p<0.001, **p<0.01, *p<0.05 vs. Veh (one-way ANOVA followed by Dunnett’s analysis). All data are mean±SEM (n = 8 per group).

[8] = in vivo; details: male, Sprague-Dawley, rat
Experimental: This study was performed at F. Hoffmann-La Roche. Sixty-five male Sprague-Dawley rats, housed 5 per cage (light onset: 12∶00), were injected intraperitoneally (ip) with either vehicle (1.25% hydroxypropyl methylcellulose (HPMC), 0.1% docusate sodium) or almorexant (30 mg/kg in 1.25% HPMC, 0.1% docusate sodium) at the mid-dark phase (ZT18; i.e., 6 h after lights-off), and returned to their home cage. Groups (n = 5 per group) of vehicle- or almorexant-treated animals were then sacrificed by decapitation 0.5, 2, 4, 8 or 12 h after the injection. An extra group of non-injected rats (n = 5) was also sampled at ZT18. Plasma was collected and stored at −80°C until assayed. Brains were rapidly dissected, frozen on dry ice, and stored at −80°C. Series of coronal brain sections (14 µm) were cut in a cryostat through the posterior hypothalamus (tuberomammillary nucleus level: 3.8 to 4.2 mm posterior to bregma) and the brain stem (dorsal raphe nucleus level: 7.3 to 8 mm posterior to bregma; locus coeruleus level: −9.3 to −10 mm posterior to bregma), thaw-mounted (6 sections per slide) and stored at −20°C. After sectioning, the remaining pieces of brain were kept at −80°C for later determination of almorexant brain concentration. The brain and plasma concentrations of almorexant were determined by quantitative liquid chromatography/mass spectrometry/mass spectrometry (LC/MS/MS).

[9] = molecular target: T1, rHCRTR2 (Rattus norvegicus, UniProt P56719); test: Inhibition of [^3H]almorexant binding to HEK293-rHCRTR2 membranes
T1 construct: expressed in transfected cells; host or cells: HEK293 (transient transfection, pCI-Neo vector), membrane preparation
Excerpt: The rat cDNAs encoding HCRTR1 (Accession No. P56718) and HCRTR2 (Accession No. P56719) were subcloned into pCI-Neo expression vectors (Promega, Madison, WI) and used to transfect HEK293 cells (acquired commercially from ATCC-LGC, Molsheim, France) as previously described.

[10] = molecular target: T2, HCRTR2 (Rattus norvegicus, UniProt P56719); test: HCRTR2 occupancy, [^3H]EMPA autoradiography of brain sections; format: in vivo; details: 30 mg/kg ip; for receptor occupancy at 30 mg/kg: rat, ip, 12 h
T2 construct: from tissue; host or cells: coronal brain sections of male Sprague-Dawley rats (TMN, DRN, CC, CA3, RSC, Pn)
T2 sequence (P56719 1-460): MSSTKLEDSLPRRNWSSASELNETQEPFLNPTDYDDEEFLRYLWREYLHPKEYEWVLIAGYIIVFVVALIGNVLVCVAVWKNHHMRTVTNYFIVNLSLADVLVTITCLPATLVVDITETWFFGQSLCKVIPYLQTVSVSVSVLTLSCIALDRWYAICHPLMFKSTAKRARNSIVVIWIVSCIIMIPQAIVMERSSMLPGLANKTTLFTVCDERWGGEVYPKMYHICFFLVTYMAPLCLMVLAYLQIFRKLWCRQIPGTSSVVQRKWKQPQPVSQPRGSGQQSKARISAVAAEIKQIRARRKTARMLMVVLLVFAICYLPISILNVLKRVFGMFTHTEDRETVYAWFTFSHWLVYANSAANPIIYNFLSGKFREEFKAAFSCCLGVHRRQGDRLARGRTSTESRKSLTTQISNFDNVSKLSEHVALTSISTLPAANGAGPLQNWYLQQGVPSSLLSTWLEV

[11] = molecular target: hHCRTR2; parameters: method as in PMID 9821961; details: 37°C; cited from earlier work
[12] = i.v., dose 2.40 / 5.18 / 12.10 mg/kg
[13] = p.o., dose 6.35 / 8.75 / 18.16 mg/kg

With `Cc1nc2ccc(NC(=O)Nc3ccnc4cccnc34)cc2o1.Cl` [SB-334867, 1-(2-methylbenzoxazol-6-yl)-3-[1], [5]naphthyridin-4-yl-urea hydrochloride] the free fraction [1] was 1.3%, the “Fu (fraction unbound / free fraction)” value [2] was 0.8% and the “% Control (10 µM) Mean SB” value [3] was 96.8%. It also gave a stability in plasma ([4]; 1 h) of 104%, a stability in plasma ([4]; 4 h) of 110% and a stability in plasma ([5]; 1 h) of 95%. It also gave a stability in plasma ([5]; 4 h) of 93%, a CL ([6]; i.v.) of 5.40 mL/min/kg and a Vss ([6]; i.v.) of 0.57 L/kg. For the same compound, the AUC/Dose [6, 12] was 3118.90 ng/h/mL, the “T1/2 (terminal half-life)” value [6, 12] was 1.21 h and the Tmax [6, 12] was 0.00 h. The Cmax/Dose ([6]; i.v., dose almorexant 2.40, SB-334867 5.18, SB-408124 12.10 mg/kg) was 1937.40 ng/mL, the “F (bioavailability)” value ([6]; p.o.) was 45.70% and the AUC/Dose [6, 13] was 1423.50 ng/h/mL. For the same compound, the “T1/2 (terminal half-life)” value [6, 13] was 3.10 h, the Tmax [6, 13] was 1.50 h and the Cmax/Dose ([6]; p.o., dose almorexant 6.35, SB-334867 8.75, SB-408124 18.16 mg/kg) was 331.10 ng/mL. The “Vss (in words)” value ([6]; rat) was “medium”, the “oral bioavailability (in words)” value ([6]; rat) was “medium” and the “systemic plasma clearance (in words)” value ([6]; rat) was “low”. The “spontaneous LMA” value ([7]; 10 mg/kg ip at ZT15, 30 min recording) was 3509±383, the “spontaneous LMA” value ([7]; 30 mg/kg ip at ZT15, 30 min recording) was 2626±341 and the “effect on spontaneous LMA (in words)” value [7] was “dose-dependently reduced spontaneous LMA”.

With `CNC(=O)[C@@H](c1ccccc1)N1CCc2cc(OC)c(OC)cc2[C@@H]1CCc1ccc(C(F)(F)F)cc1` [almorexant, (2R)-2-[(1S)-6,7-Dimethoxy-1-[2-(4-trifluoromethyl-phenyl)-ethyl]-3,4-dihydro-1H-isoquinolin-2-yl]-N-methyl-2-phenyl-acetamide] the “time at which half-maximal concentrations were achieved” value [8] was 4 and 6, the Kp at 0.5 h ([8]; ip, 30 mg/kg) was 0.28 and the fraction unbound ([1]; human, plasma) was under 0.037. The Ki [9] was 2 nM, the fraction unbound ([2]; rat, plasma) was under 0.087 and the stability in plasma ([4]; 2 h) was 95.0%. The stability in plasma ([5]; 2 h) was 90.0%, the “HCRTR2 RO” value ([10]; all 6 structures, within 30 min, maximal at 2 h and 4 h) was about 100% and the receptor occupancy at 30 mg/kg ([10]; CA3) was 58.4 ± 11.5%. It also gave a receptor occupancy at 30 mg/kg ([10]; CC) of 66.1 ± 11.6%, a receptor occupancy at 30 mg/kg ([10]; DRN) of 57.7 ± 10.5% and a receptor occupancy at 30 mg/kg ([10]; Pn) of 67.2 ± 13.9%. The receptor occupancy at 30 mg/kg ([10]; RSC) was 64.6 ± 10.7%, the receptor occupancy at 30 mg/kg ([10]; TMN) was 49.2 ± 13.2% and the Ki [11] was 0.9 nM. It also gave an AUC/Dose ([6]; Wistar, rat, in vivo, iv) of 193.70 ng/h/mL, a Tmax ([6]; Wistar, rat, in vivo, iv) of 0 h and a Vd ([6]; Wistar, rat, in vivo, iv) of 9.45 L/kg. The clearance ([6]; Wistar, rat, in vivo, iv) was 87.1 mL/min/kg, the half-life ([6]; Wistar, rat, in vivo, iv) was 2.58 h and the Cmax/Dose ([6]; Wistar, rat, in vivo, iv, 12.1 mg/kg) was 238.20 ng/mL. For the same compound, the AUC/Dose ([6]; Wistar, rat, in vivo, po) was 28.00 ng/h/mL, the Tmax ([6]; Wistar, rat, in vivo, po) was 0.5 h and the bioavailability ([6]; Wistar, rat, in vivo, po) was 14.4%. For the same compound, the half-life ([6]; Wistar, rat, in vivo, po) was 1.29 h, the Cmax/Dose ([6]; Wistar, rat, in vivo, po, 18.16 mg/kg) was 12.90 ng/mL and the “Vss (in words)” value ([6]; rat, in vivo) was “high”. For the same compound, the “systemic plasma clearance (in words)” value ([6]; rat, in vivo) was “high”, the “oral bioavailability (in words)” value ([6]; rat, in vivo, po) was “low” and the “effect on spontaneous LMA (in words)” value [7] was “dose-dependently reduced LMA”.

From PMC3388080 (PLoS ONE, 2012)
